Test results reported in patent publication US20250144067A1, “PERSONALIZED STARVATION THERAPY FOR CANCER” (Faeth Therapeutics, Inc., priority 2021, published 2025).
Structures can show the parent of a compound that is named as a salt. Where two headings read alike, the source gives them in different places.

Assays:
[1] = test system: NCI-H292 lung cancer cells; assay: FDA drug screening, complete media vs cholesterol-free media without statin (TABLE 1); format: cell-based, human
[2] = test system: NCI-H292 lung cancer cells; assay: FDA drug screening, complete media vs cholesterol-free media with simvastatin (TABLE 2); format: cell-based, human
[3] = Complete minus Cholesterol-free, >0 enhanced anti-cancer activity, about 0 neutral, <0 antagonist
[4] = NCI-H292 cells, cholesterol-free media without statin, FDA drug library screen
[5] = NCI-H292 cells, complete media, FDA drug library screen
[6] = NCI-H292 cells, FDA library drug in cholesterol-free media with simvastatin 0.04 μM
[7] = NCI-H292 cells, FDA library drug in complete media
[8] = complete media vs cholesterol-free media + simvastatin (0.04 μM), >0 enhanced anti-cancer activity, about 0 neutral, <0 antagonist
[9] = Complete minus Cholesterol-free, greater than 0 enhanced anti-cancer activity, about 0 neutral, below 0 antagonist
[10] = NCI-H292 cells, FDA drug library screen, cholesterol-free media without statin
[11] = NCI-H292 cells, FDA drug library screen, complete media
[12] = NCI-H292 cells, cholesterol-free media without statin
[13] = NCI-H292 cells, cholesterol-free media with simvastatin 0.04 μM, FDA drug library screen (TABLE 2)
[14] = NCI-H292 cells, complete media, FDA drug library screen (TABLE 2)
[15] = complete media minus cholesterol-free media + simvastatin (0.04 μM), >0 enhanced anti-cancer activity, about 0 neutral, <0 antagonist
[16] = complete vs cholesterol-free media, greater than 0 enhanced anti-cancer activity, about 0 neutral, below 0 antagonists
[17] = complete vs cholesterol-free media, […]
[18] = complete media vs cholesterol-free media + simvastatin (0.04 μM), […]
[19] = NCI-H292 cells, cholesterol-free media with simvastatin 0.04 μM, cell growth value in FDA drug screen
[20] = NCI-H292 cells, complete media, cell growth value in FDA drug screen
[21] = complete media minus cholesterol-free media + simvastatin, >0 enhanced anti-cancer activity, about 0 neutral, <0 antagonist
[22] = complete vs cholesterol-free media, >0 enhanced anti-cancer activity, about 0 neutral, <0 antagonist
[23] = NCI-H292 cells, FDA drug library screen, cholesterol-free media with simvastatin 0.04 μM
[24] = Complete minus Cholesterol-free, greater than 0 enhanced anti-cancer activity, about 0 neutral, below 0 antagonists
[25] = NCI-H292 cells in cholesterol-free media without statin
[26] = NCI-H292 cells in complete media

O=P(O)(O)C(Cl)(Cl)P(=O)(O)O [Clodronic acid (disodium salt)]
Difference [1, 3]: 0.00
Cholesterol-free [1, 4]: 0.9505
Complete [1, 5]: 0.955
Cholesterol-free media + simvastatin (0.04 μM) [2, 6]: 1.883
Complete Media [2, 7]: 1.075
Difference [2, 8]: −0.81

Cc1ccc(/C(=C\CN2CCCC2)c2ccccn2)cc1 [Triprolidine (hydrochloride monohydrate)]
Difference [1, 9]: −0.13
Cholesterol-free [1, 10]: 1.24
Complete [1, 11]: 1.107
Cholesterol-free media + simvastatin (0.04 μM) [2, 6]: 1.806
Complete Media [2, 7]: 1.191
Difference [2, 8]: −0.61

COc1cc(CNC(=O)CCCC/C=C/C(C)C)ccc1O [Capsaicin]
Difference [1, 3]: −0.28
Cholesterol-free [1, 12]: 1.197
Complete ([1]; NCI-H292 cells, complete media): 0.9142
Cholesterol-free media + simvastatin (0.04 μM) [2, 13]: 1.403
Complete Media [2, 14]: 1.38
Difference [2, 15]: −0.02

CC(C)n1nccc1-c1ncccc1COc1cccc(O)c1C=O [Voxelotor]
Cholesterol-free [1, 12]: 1.146
Complete ([1]; NCI-H292 cells, complete media): 0.7013
Difference [1, 16]: −0.44
Cholesterol-free media + simvastatin (0.04 μM) [2, 6]: 1.853
Complete Media [2, 7]: 1.475
Difference [2, 8]: −0.38

CN(Cc1cnc2nc(N)nc(N)c2n1)c1ccc(C(=O)N[C@@H](CCC(=O)O)C(=O)O)cc1 [Methotrexate]
Difference [1, 9]: −0.13
Cholesterol-free [1, 10]: 0.225
Complete [1, 11]: 0.09944
Cholesterol-free media + simvastatin (0.04 μM) [2, 13]: 0.1275
Complete Media [2, 14]: 0.1078
Difference [2, 15]: −0.02

N[C@@H]1CN(c2c(F)cc3c(=O)c(C(=O)O)cn([C@@H]4C[C@@H]4F)c3c2Cl)CC12CC2.O [Sitafloxacin (hydrate)]
Cholesterol-free [1, 12]: 1.147
Complete ([1]; NCI-H292 cells, complete media): 0.7079
Difference [1, 17]: −0.44
Cholesterol-free media + simvastatin (0.04 μM) [2, 6]: 1.043
Complete Media [2, 7]: 0.7235
Difference [2, 18]: −0.32

CC(C)CCC[C@@H](C)[C@H]1CC[C@H]2[C@@H]3CC=C4C[C@@H](O)CC[C@]4(C)[C@H]3CC[C@]12C [Cholesterol]
Difference [1, 3]: −0.27
Cholesterol-free [1, 12]: 1.34
Complete ([1]; NCI-H292 cells, complete media): 1.074
Cholesterol-free media + simvastatin (0.04 μM) [2, 6]: 1.697
Complete Media [2, 7]: 1.069
Difference [2, 8]: −0.63

CCCN1CCCC[C@H]1C(=O)Nc1c(C)cccc1C [Ropivacaine (hydrochloride monohydrate)]
Cholesterol-free [1, 12]: 0.9717
Complete ([1]; NCI-H292 cells, complete media): 0.6061
Difference [1, 16]: −0.37
Cholesterol-free media + simvastatin (0.04 μM) [2, 19]: 1.378
Complete Media [2, 20]: 1.433
Difference [2, 21]: 0.05

C[N+](C)(C)CCO.[Cl-] [Choline (chloride)]
Cholesterol-free [1, 4]: 0.7223
Complete [1, 5]: 1.217
Difference [1, 22]: 0.49
Cholesterol-free media + simvastatin (0.04 μM) [2, 19]: 0.793
Complete Media [2, 20]: 0.8494
Difference [2, 21]: 0.06

Chloroquine (phosphate)
Cholesterol-free [1]: 1.557
Complete [1]: 0.9171
Difference [1]: −0.64
Cholesterol-free media + simvastatin (0.04 μM) [2]: 1.286
Complete Media [2]: 0.98
Difference [2]: −0.31

CC1=C(C(=O)O)N2C(=O)[C@@H](NC(=O)[C@H](N)C3=CCC=CC3)[C@H]2SC1 [Cephradine]
Cholesterol-free [1, 4]: 0.9298
Complete [1, 5]: 1.756
Difference [1, 22]: 0.83
Cholesterol-free media + simvastatin (0.04 μM) [2, 6]: 1.213
Complete Media [2, 7]: 0.8523
Difference [2, 8]: −0.36

CCCCC(CC)COC(=O)c1ccccc1O (stereo not drawn) [Octisalate]
Difference [1, 3]: −0.04
Cholesterol-free [1, 4]: 2.188
Complete [1, 5]: 2.15
Cholesterol-free media + simvastatin (0.04 μM) [2, 23]: 0.992
Complete Media [2, 11]: 0.8834
Difference [2, 8]: −0.11

COc1cc2c(cc1OC)C(=O)C(CC1CCN(Cc3ccccc3)CC1)C2 (stereo not drawn) [Donepezil]
Difference [1, 3]: 0.03
Cholesterol-free [1, 4]: 0.9537
Complete [1, 5]: 0.9881
Cholesterol-free media + simvastatin (0.04 μM) [2, 23]: 1.009
Complete Media [2, 11]: 1.62
Difference [2, 21]: 0.61

Clc1ccc2c(c1)C(N1CCNCC1)=Nc1ccccc1O2 [Amoxapine]
Cholesterol-free [1, 4]: 1.3
Complete [1, 5]: 1.39
Difference [1, 22]: 0.09
Cholesterol-free media + simvastatin (0.04 μM) [2, 6]: 1.586
Complete Media [2, 7]: 1.017
Difference [2, 8]: −0.57

Nc1c(Br)cc(Br)cc1CN[C@H]1CC[C@H](O)CC1 [Ambroxol (hydrochloride)]
Cholesterol-free [1, 12]: 1.285
Complete ([1]; NCI-H292 cells, complete media): 0.8347
Difference [1, 16]: −0.45
Cholesterol-free media + simvastatin (0.04 μM) [2, 13]: 1.005
Complete Media [2, 14]: 0.9822
Difference [2, 15]: −0.02

O=C(c1cc(Cc2n[nH]c(=O)c3ccccc23)ccc1F)N1CCN(C(=O)C2CC2)CC1 [Olaparib]
Difference [1, 24]: −0.72
Cholesterol-free [1, 25]: 1.436
Complete [1, 26]: 0.7169
Cholesterol-free media + simvastatin (0.04 μM) [2, 13]: 0.8331
Complete Media [2, 14]: 0.8347
Difference [2, 15]: 0.00

Cc1ccc(C(=O)C(C)CN2CCCCC2)cc1 (stereo not drawn) [Tolperisone (hydrochloride)]
Difference [1, 3]: 0.07
Cholesterol-free [1, 4]: 1.37
Complete [1, 5]: 1.436
Cholesterol-free media + simvastatin (0.04 μM) [2, 19]: 0.9156
Complete Media [2, 20]: 0.9664
Difference [2, 21]: 0.05

CCOC(=O)N[C@@H]1CC[C@@H]2[C@@H](C1)C[C@H]1C(=O)O[C@H](C)[C@H]1[C@H]2/C=C/c1ccc(-c2cccc(F)c2)cn1 [Vorapaxar]
Difference [1, 3]: −0.20
Cholesterol-free [1, 12]: 1.186
Complete ([1]; NCI-H292 cells, complete media): 0.984
Cholesterol-free media + simvastatin (0.04 μM) [2, 13]: 1.048
Complete Media [2, 14]: 1.005
Difference [2, 15]: −0.04

CC1(C)S[C@@H]2[C@H](/N=C/N3CCCCCC3)C(=O)N2[C@H]1C(=O)O [Mecillinam]
Difference [1, 9]: −0.15
Cholesterol-free [1, 10]: 0.9011
Complete [1, 11]: 0.7528
Cholesterol-free media + simvastatin (0.04 μM) [2, 23]: 1.033
Complete Media [2, 11]: 1.74
Difference [2, 21]: 0.71

CC(=O)OCC(=O)[C@H]1CC[C@H]2[C@@H]3CCC4=CC(=O)CC[C@]4(C)[C@H]3CC[C@]12C [Deoxycorticosterone acetate]
Cholesterol-free [1, 4]: 0.7412
Complete [1, 5]: 1.214
Difference [1, 22]: 0.47
Cholesterol-free media + simvastatin (0.04 μM) [2, 23]: 0.9825
Complete Media [2, 11]: 0.8887
Difference [2, 8]: −0.09

O=C(O)CC(O)(CC(=O)O)C(=O)O [Citric acid]
Difference [1, 9]: −0.17
Cholesterol-free [1, 10]: 0.92
Complete [1, 11]: 0.7466
Cholesterol-free media + simvastatin (0.04 μM) [2, 13]: 1.227
Complete Media [2, 14]: 1.209
Difference [2, 15]: −0.02

Pimavanserin tartrate
Cholesterol-free [1, 12]: 1.261
Complete ([1]; NCI-H292 cells, complete media): 0.9005
Difference [1, 17]: −0.36
Cholesterol-free media + simvastatin (0.04 μM) [2, 23]: 1.092
Complete Media [2, 11]: 0.9419
Difference [2, 18]: −0.15

C=CC(=O)N1CCC[C@@H](n2nc(-c3ccc(Oc4ccccc4)cc3)c3c(N)ncnc32)C1 (racemic) [Ibrutinib (Racemate)]
Cholesterol-free [1, 12]: 1.242
Complete ([1]; NCI-H292 cells, complete media): 0.9233
Difference [1, 16]: −0.32
Cholesterol-free media + simvastatin (0.04 μM) [2, 13]: 0.346
Complete Media [2, 14]: 0.2858
Difference [2, 15]: −0.06

CCCCOc1ccc(C(=O)CCN2CCCCC2)cc1 [Dyclonine (hydrochloride)]
Cholesterol-free [1, 12]: 1.119
Complete ([1]; NCI-H292 cells, complete media): 0.7824
Difference [1, 16]: −0.34
Cholesterol-free media + simvastatin (0.04 μM) [2, 19]: 0.8623
Complete Media [2, 20]: 0.9661
Difference [2, 21]: 0.10

Clebopride (malate)
Difference [1, 3]: −0.29
Cholesterol-free [1, 12]: 0.9703
Complete ([1]; NCI-H292 cells, complete media): 0.6807
Cholesterol-free media + simvastatin (0.04 μM) [2, 13]: 0.7532
Complete Media [2, 14]: 0.7281
Difference [2, 15]: −0.03

CC(=O)N[C@H]1[C@H]([C@H](O)[C@H](O)CO)OC(C(=O)O)=C[C@@H]1N=C(N)N [Zanamivir]
Difference [1, 24]: −0.85
Cholesterol-free [1, 25]: 1.947
Complete [1, 26]: 1.097
Cholesterol-free media + simvastatin (0.04 μM) ([2]; NCI-H292 cells, drug in cholesterol-free media with simvastatin 0.04 μM): 1.295
Complete Media ([2]; NCI-H292 cells, drug in complete media): 1.107
Difference [2, 8]: −0.19

Cc1[nH]c(/C=C2\C(=O)Nc3ccc(F)cc32)c(C)c1C(=O)NCCN1CCCC1 [Toceranib]
Cholesterol-free [1, 4]: 0.7492
Complete [1, 5]: 1.361
Difference [1, 22]: 0.61
Cholesterol-free media + simvastatin (0.04 μM) [2, 19]: 0.9375
Complete Media [2, 20]: 1.022
Difference [2, 21]: 0.08

Oc1cc(Cl)ccc1Oc1ccc(Cl)cc1Cl [Triclosan]
Difference ([1]; Complete minus Cholesterol-free, […]): −0.91
Cholesterol-free [1, 25]: 1.986
Complete [1, 26]: 1.081
Cholesterol-free media + simvastatin (0.04 μM) ([2]; NCI-H292 cells, cholesterol-free media with simvastatin 0.04 μM, […]): 1.015
Complete Media ([2]; NCI-H292 cells, complete media, […]): 1.093
Difference ([2]; complete media minus cholesterol-free media + simvastatin, […]): 0.08

COC(=O)C1=C(C)NC(C)=C(C(=O)OC(C)C)C1c1cccc2nonc12 (stereo not drawn) [Isradipine]
Cholesterol-free [1, 12]: 1.16
Complete ([1]; NCI-H292 cells, complete media): 0.8034
Difference [1, 16]: −0.36
Cholesterol-free media + simvastatin (0.04 μM) [2, 23]: 0.7485
Complete Media [2, 11]: 1.061
Difference [2, 21]: 0.31
